Laboratory results taken from US6503906B1 (priority 2002, dated 2003).
Values after ≈ are worked out from the molar mass of the structure shown.

Experiments:
anthrax [1] = system: anthrax; set-up: species or system human
anthrax [2] = assay: microbe, parasite or virus in culture; type: cell-based; details: Bacillus anthracis, read-out: MIC against anthrax, mid point adopted in the models
inhalational anthrax = details: human, in vivo; cited from earlier work
[3] = system: Bacillus anthracis spores; details: rhesus monkey, in vivo; cited from earlier work
[4] = system: most other infectious organisms; details: in vivo; cited from earlier work
[5] = system: gram positive and negative bacteria; details: human, in vivo; cited from earlier work

## O=C(O)c1cn(C2CC2)c2cc(N3CCNCC3)c(F)cc2c1=O [ciprofloxacin]
Anthrax [1]
  drop of mortality rate: 2 folds
  reduction of mortality rate with optimized regimens compared to currently recommended regimens: up to 2 folds
Anthrax [2]
  MIC: 0.07 µg/mL (≈ 0.211 µM)
Inhalational anthrax
  overall survival of the US patients: 55%
  survival rate of anthrax patients treated with the drug: 50˜60%
[3]
  protection from the disease: adequately protected from the disease
  survival rate of ciprofloxacin-treated animals: 90%
[4]
  effectiveness against most other infectious organisms: over 80%
[5]
  MIC range of the bacteria in the literature study: 0.008 to 0.4 µg/mL
  time to complete bacteria eradication: more than 10 days
